In patent publication US10596296B2, “Heparan sulphates” (Agency for Science, Technology and Research, priority 2014, dated 2020):
“Also recorded” adds a separate entry of the source.

Key:
[1] = test system: chondrogenic differentiation of hMSCs; assay: Alcian blue staining of chondrogenic micromass pellets; format: cell-based, human
Experimental: (§1) In order to assess the effects of HS16+ve on the chondrogenic differentiation of hMSCs in vitro, it was first necessary to establish the effects of TGF-β1 alone. Chondrogenic differentiation was carried out using a modified micromass culture system. [Zhang, L., et al., Chondrogenic differentiation of human mesenchymal stem cells: a comparison between micromass and pellet culture systems. Biotechnol Lett, 2010. 32(9): p. 1339-1346.]. Briefly, passage 4 hMSCs were harvested and resuspended in chemically defined chondrogenic media (PT-3003, Lonza, MD, USA) at 2×10^7 cells/mL. Droplets of 12.5 μL were then seeded into the middle of each well in a 24-well plate and left to adhere at 37° C. for 2 h, after which, 500 μL of chondrogenic media supplemented with either 1 or 10 ng/mL of TGF-β1 (100-210, PeproTech) alone or with either 5 or 10 μg/mL of heparin (Sigma-Aldrich), porcine mucosal HS (HSPM) (Celsus laboratories), HS16+ve or HS16-ve was added to each well. The cell droplets coalesced into spherical masses after 24 h. Media was changed every 3 days and the micromasses harvested on days 3, 7, 14 and 21.

[2] = test system: chondrogenic differentiation of hMSCs; assay: Wet weight of chondrogenic micromass pellets; format: cell-based, human; details: 10 ng/mL TGF-β1 vs control; days 3, 7, 14 and 21
Experimental: as §1
Wet weights of the resulting control (Ctrl) and TGF-β1-treated (10 ng/mL) (TGF-β1) micromass pellets were taken at days 3, 7, 14 and 21 (FIG. 15).

TGF-β1 = biological target: T1, TGF-β1 (Homo sapiens, UniProt P01137); assay: Differential scanning fluorimetry (DSF) of TGF-β1; format: binding
T1 construct: full length mature TGF-β1 is 112 amino acids in length
T1 sequence (P01137 279-390 limits assumed): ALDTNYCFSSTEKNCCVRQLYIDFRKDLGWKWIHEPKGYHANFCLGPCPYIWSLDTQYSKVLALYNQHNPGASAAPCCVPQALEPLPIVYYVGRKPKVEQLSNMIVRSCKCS
Experimental: DSF was performed on a 7500 Fast Real PCR System (software version 1.4, Applied Biosystems), as described previously (34,35). TGF-β1 (2.5 μM) was tested with or without heparin (25 μM). To facilitate the melting of TGF-β1, 10 mM of dithiothreitol (DTT) was added to the reaction mix. Experiments were run as previously described (34). First derivatives of the melting curves were calculated using Origin 7 (OriginLab Corp.) to determine the melting temperature of TGF-β1 under the various conditions.

[3] = test system: chondrogenic differentiation of hMSCs; assay: qPCR of chondrogenic micromass pellets (Example 2); format: cell-based, human
Experimental: Total RNA was isolated from chondrogenic micromass pellets using TRIZOL reagent (Life Technologies, CA, USA) according to the manufacturer's protocol. Reverse transcription was carried out on 1 μg RNA using the SuperScript® VILO™ cDNA Synthesis Kit (Life Technologies) following the manufacturer's instructions, with the incubation at 42° C. being carried out for 2 h instead of 1 h. Each qPCR contained 40 ng cDNA, 1 μL TaqMan® primer-probe mix per gene, and 10 μL Taqman® Fast Universal PCR Master Mix (Life Technologies) in a final volume of 20 μL. Thermal cycling conditions were 95° C. for 20 s, followed by 45 cycles of 95° C. for 1 s and 60° C. for 20 s. Each qPCR was run in duplicate and gene expression was normalised to HPRT1 expression to obtain the ΔCt value. The average value of biological triplicates was taken. Chondrogenic micromass pellets cultured in media without GAG or TGF-β1 were used as controls (ΔΔCt). Relative expression levels for each primer set were expressed as fold changes by the 2-ΔΔCt method [Livak, K. J. and T. D. Schmittgen, Analysis of Relative Gene Expression Data Using Real-Time Quantitative PCR and the 2-ΔΔCT Method. Methods, 2001. 25(4): p. 402-408]. The following TaqMan® primer-probe assays (Life technologies) were used:
as §1
Next, hMSCs were differentiated for 21 days in the presence of 1 ng/mL TGF-β1 alone (1 TGF-β1) or in combination with 10 μg/mL of GAG (heparin, HSPM, HS16+ve or HS16−ve) or with 10 ng/mL TGF-β1 (10 TGF-β1) as a positive control.

[4] = test system: TGF-β1 signaling (pSMAD2, pSMAD3) in hMSCs; assay: Western blotting of pSMAD2/pSMAD3 in hMSCs treated with TGF-β1 and GAG; format: cell-based, human; details: 6, 12, 24 and 48 h
Experimental: Primary hMSCs (Lonza) were isolated from the bone marrow mononuclear cells of a young healthy adult human donor by plastic adherence and characterized as previously described (30,31). The adherent cells were maintained in a basal media consisting of DMEM-low glucose (1000 mg/l, DMEM-LG) supplemented with 10% fetal calf serum, 100 U/ml penicillin, 100 μg/ml streptomycin and 2 mM L-glutamine, and cultured under standard conditions at 37° C. and 5% CO2 in a humidified atmosphere. Media replacement was every three days. Cells were detached with 0.125% trypsin/Versene (pH 7.0) upon reaching 75-80% confluence, and re-plated at a density of 3,000 cells/cm^2 under the same culture conditions. All experiments were carried out with cells at passage 5.
Human MSCs were cultured in 6-well plates in basal media for 24 h at a density of 10,000 cells/cm^2. TGF-β1 treatments were then prepared at either 1 ng/ml or 5 ng/ml alone or in the presence of either 10 μg/ml or 40 μg/ml of full length heparin, or 1 ng/ml of TGF-β1 with 10 μg/ml size-fractionated or selectively desulfated heparin, HS^PM, HS16+ or HS16−, and incubated at room temperature for 10 min before being added to the cells. Latent TGF-β1 (LTGF-β1) treatments were similarly prepared at 3.3 ng/ml alone or with 10 μg/ml of the various GAGs described above. For inhibitor studies, the cells were pre-treated for 30 min with 10 μM SB431542 (Sigma-Aldrich) or DMSO before treatment with TGF-β1. […] Samples were then immunoblotted with antibodies against SMAD2/3 (#3102, Cell Signaling), phosphorylated SMAD2 (pSMAD2, #3108, Cell Signaling), phosphorylated SMAD3 (pSMAD3, #9520, Cell Signaling) and actin (MAB1501R, Millipore). Densitometry was carried out using Quantity One software (version 4.6.6, Bio-Rad).

[5] = 10 ng/mL TGF-β1, days 3, 7, 14 and 21

TGF-β1: transforming growth factor-β1 protein (PeproTech)
GAG production by Alcian blue staining, 10 ng/mL vs 1 ng/mL TGF-β1 ([1]; 21 days): increase in GAG production and deposition; also recorded: modest increase in GAG production
GAG content by Alcian blue staining vs control pellets ([1]; day 21, 10 ng/mL TGF-β1): more GAGs
wet weight of micromass pellets over time [2]: weight loss was less pronounced
melting temperature of TGF-β1 (TGF-β1; with 10 mM DTT, without heparin): 44 °C
melting temperature of TGF-β1 alone (TGF-β1; without DTT): 66 °C
Type II collagen transcripts ([3]; 10 ng/mL TGF-β1): only detectable in TGF-β1-treated pellets and undifferentiated hMSCs
type X collagen transcripts relative to control pellets ([3]; 10 ng/mL TGF-β1): extremely high levels
COMP expression relative to untreated control pellets [3, 5]: increased expression
SOX9 expression relative to untreated control pellets [3, 5]: increased expression
aggrecan expression relative to untreated control pellets ([3]; 10 ng/mL TGF-β1, days 7, 14 and 21): increased expression
COMP expression, high (10 ng/mL) TGF-β1 relative to low dose TGF-β1 alone ([3]; 21 days): did not significantly alter COMP expression
type X collagen expression, high TGF-β1 relative to low TGF-β1 ([3]; day 21): significant increase
pSMAD2 signal ([4]; 1 ng/mL TGF-β1): quite intense at 6 h post treatment, and started to subside from 12 h onwards
pSMAD2 signal ([4]; 5 ng/mL and 10 ng/mL TGF-β1): remain saturated across all the time points tested
pSMAD3 signal ([4]; 5 ng/mL and 10 ng/mL TGF-β1): returned to background levels by 24 h
